Data as given in PubChem BioAssay (NCI).
Values joined by “and” are separate entries in the source; they are usually repeats but may differ in a detail not shown here. Identical values can stand only once.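 Each compound was tested at five concentrations against cells in 96-well plates for 48 hours. Abbreviation: GI50, concentration required for 50% inhibition of growth. TGI: total growth inhibition.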

How the values were obtained:
Assay in all cases: NCI tumour cell line growth inhibition, 48 h
SK-MEL-2 melanoma = test system: SK-MEL-2 melanoma
EKVX NSCLC = test system: EKVX NSCLC
UACC-257 melanoma = test system: UACC-257 melanoma
M14 melanoma = test system: M14 melanoma
SF-295 CNS = test system: SF-295 CNS
DU-145 prostate = test system: DU-145 prostate
NCI-H23 lung = test system: NCI-H23 lung
SF-268 CNS = test system: SF-268 CNS
NCI/ADR-RES ovarian = test system: NCI/ADR-RES ovarian
MCF7 breast = test system: MCF7 breast
MALME-3M melanoma = test system: MALME-3M melanoma
OVCAR-5 ovarian = test system: OVCAR-5 ovarian
MDA-MB-468 breast = test system: MDA-MB-468 breast
U251 CNS = test system: U251 CNS
UO-31 renal = test system: UO-31 renal
RXF 393 renal = test system: RXF 393 renal
K-562 leukemia = test system: K-562 leukemia
BT-549 breast = test system: BT-549 breast
HOP-92 NSCLC = test system: HOP-92 NSCLC
HS 578T breast = test system: HS 578T breast
MDA-MB-231 breast = test system: MDA-MB-231 breast
IGROV1 ovarian = test system: IGROV1 ovarian
SK-MEL-28 melanoma = test system: SK-MEL-28 melanoma
MOLT-4 leukemia = test system: MOLT-4 leukemia
NCI-H522 lung = test system: NCI-H522 lung
SNB-19 CNS = test system: SNB-19 CNS
SN12C renal = test system: SN12C renal
A498 renal = test system: A498 renal
CAKI-1 renal = test system: CAKI-1 renal
UACC-62 melanoma = test system: UACC-62 melanoma
KM12 colon = test system: KM12 colon
ACHN renal = test system: ACHN renal
A549 NSCLC = test system: A549 NSCLC
SK-MEL-5 melanoma = test system: SK-MEL-5 melanoma
OVCAR-4 ovarian = test system: OVCAR-4 ovarian
NCI-H226 lung = test system: NCI-H226 lung
COLO 205 colon = test system: COLO 205 colon
MDA-MB-435 = test system: MDA-MB-435
NCI-H460 lung = test system: NCI-H460 lung
TK-10 renal = test system: TK-10 renal
OVCAR-8 ovarian = test system: OVCAR-8 ovarian
T-47D breast = test system: T-47D breast
SK-OV-3 ovarian = test system: SK-OV-3 ovarian
PC-3 prostate = test system: PC-3 prostate
SF-539 CNS = test system: SF-539 CNS
SNB-75 CNS = test system: SNB-75 CNS
HOP-62 NSCLC = test system: HOP-62 NSCLC

Cn1cc(-c2cc(N)n3nc(-c4c[nH]c5ccccc45)cc3n2)c2cccnc21
GI50 (SK-MEL-2 melanoma): 12.5 µM | TGI (SK-MEL-2 melanoma): 43.1 µM | GI50 (EKVX NSCLC): 15.3 µM | TGI (EKVX NSCLC): > 100 µM | GI50 (UACC-257 melanoma): 13.7 µM | TGI (UACC-257 melanoma): 33.5 µM | GI50 (M14 melanoma): 2.63 µM | TGI (M14 melanoma): 6.79 µM | GI50 (SF-295 CNS): 1.99 µM | TGI (SF-295 CNS): 4.74 µM | GI50 (DU-145 prostate): 5.09 µM | TGI (DU-145 prostate): > 100 µM | GI50 (NCI-H23 lung): 19 µM | TGI (NCI-H23 lung): 73.6 µM | GI50 (SF-268 CNS): 17.9 µM | TGI (SF-268 CNS): 81.9 µM | GI50 (NCI/ADR-RES ovarian): 4.66 µM | TGI (NCI/ADR-RES ovarian): > 100 µM | GI50 (MCF7 breast): 3.3 µM | TGI (MCF7 breast): > 100 µM | GI50 (MALME-3M melanoma): 3.25 µM | TGI (MALME-3M melanoma): 17.1 µM | GI50 (OVCAR-5 ovarian): 11 µM | TGI (OVCAR-5 ovarian): 39.1 µM | GI50 (MDA-MB-468 breast): 2.22 µM | TGI (MDA-MB-468 breast): 6.42 µM | GI50 (U251 CNS): 3.34 µM | TGI (U251 CNS): > 100 µM | GI50 (UO-31 renal): 5.41 µM | TGI (UO-31 renal): 26.6 µM | GI50 (RXF 393 renal): 2.28 µM | TGI (RXF 393 renal): 8.2 µM | GI50 (K-562 leukemia): 2.79 µM | TGI (K-562 leukemia): > 100 µM | GI50 (BT-549 breast): 11.8 µM | TGI (BT-549 breast): 33.6 µM | GI50 (HOP-92 NSCLC): 5.81 µM | TGI (HOP-92 NSCLC): 27.8 µM | GI50 (HS 578T breast): 20 µM | TGI (HS 578T breast): > 100 µM | GI50 (MDA-MB-231 breast): 3.4 µM | TGI (MDA-MB-231 breast): 28.8 µM | GI50 (IGROV1 ovarian): 19.1 µM | TGI (IGROV1 ovarian): 55.9 µM | GI50 (SK-MEL-28 melanoma): 5.33 µM | TGI (SK-MEL-28 melanoma): 20.2 µM | GI50 (MOLT-4 leukemia): 3.32 µM | TGI (MOLT-4 leukemia): > 100 µM | GI50 (NCI-H522 lung): 5.54 µM | TGI (NCI-H522 lung): 35.9 µM | GI50 (SNB-19 CNS): 14.8 µM | TGI (SNB-19 CNS): 31.4 µM | GI50 (SN12C renal): 11.6 µM | TGI (SN12C renal): 42.1 µM | GI50 (A498 renal): 23 µM | TGI (A498 renal): 54.8 µM | GI50 (CAKI-1 renal): 3.85 µM | TGI (CAKI-1 renal): 44.8 µM | GI50 (UACC-62 melanoma): 5.71 µM | TGI (UACC-62 melanoma): 21.7 µM | GI50 (KM12 colon): 3.34 µM | TGI (KM12 colon): 14.7 µM | GI50 (ACHN renal): 3.77 µM | TGI (ACHN renal): 21.1 µM | GI50 (A549 NSCLC): 4.19 µM | TGI (A549 NSCLC): > 100 µM | GI50 (SK-MEL-5 melanoma): 7.04 µM | TGI (SK-MEL-5 melanoma): 20.5 µM | GI50 (OVCAR-4 ovarian): 3.42 µM | TGI (OVCAR-4 ovarian): > 100 µM | GI50 (NCI-H226 lung): 14.1 µM | TGI (NCI-H226 lung): > 100 µM | GI50 (COLO 205 colon): 10.7 µM | TGI (COLO 205 colon): 45.1 µM | GI50 (MDA-MB-435): 11 µM | TGI (MDA-MB-435): 29.5 µM | GI50 (NCI-H460 lung): 3.56 µM | TGI (NCI-H460 lung): > 100 µM | GI50 (TK-10 renal): 17.1 µM | TGI (TK-10 renal): 59.3 µM | GI50 (OVCAR-8 ovarian): 4.63 µM | TGI (OVCAR-8 ovarian): > 100 µM | GI50 (T-47D breast): 2.99 µM | TGI (T-47D breast): 13.1 µM | GI50 (SK-OV-3 ovarian): 20.6 µM | TGI (SK-OV-3 ovarian): 69.5 µM | GI50 (PC-3 prostate): 3.83 µM | TGI (PC-3 prostate): 23.6 µM | GI50 (SF-539 CNS): 2.58 µM | TGI (SF-539 CNS): 7.31 µM | GI50 (SNB-75 CNS): 2.44 µM | TGI (SNB-75 CNS): 44.2 µM | GI50 (HOP-62 NSCLC): 6.15 µM | TGI (HOP-62 NSCLC): 59.7 µM

O=C(Nc1ccc(Br)cc1F)c1cc(Cl)ccc1O
GI50 (MDA-MB-468 breast): 0.871 µM | TGI (MDA-MB-468 breast): 4.78 µM

CNCCOC(=O)/C=C1\CC[C@H]2[C@@H]([C@@H](O)C(=O)[C@@H]3[C@]2(C)CC[C@H](O)[C@]3(C)C(=O)OC)[C@H]1C
GI50 (MDA-MB-468 breast): 1.44 µM | TGI (MDA-MB-468 breast): 3.69 µM

Cc1cc(N[C@@H]2CCC[C@H](Nc3ccnc4cc(Cl)ccc34)C2)nc(N2CCCCCC2)n1
GI50 (MDA-MB-468 breast): 1.4 µM | TGI (MDA-MB-468 breast): 3.11 µM

Clc1cc2c(c(CSc3nc4ccccc4n4cccc34)c1)OCOC2
GI50 (MDA-MB-468 breast): 2.16 µM | TGI (MDA-MB-468 breast): > 100 µM

O=C(Nc1cc(C(F)(F)F)cc(C(F)(F)F)c1)c1cc(Cl)ccc1O
GI50 (MDA-MB-468 breast): 0.195 µM and 0.238 µM | TGI (MDA-MB-468 breast): 0.715 µM and 0.799 µM

Nc1ncc(-c2ccc3ncnc(Nc4ccc(F)c(Cl)c4)c3c2)cn1
GI50 (MDA-MB-468 breast): 0.229 µM | TGI (MDA-MB-468 breast): 0.833 µM

O=C(/C=C/c1ccc[nH]1)c1ccc(-n2ccc(C(F)(F)F)n2)cc1
GI50 (MDA-MB-468 breast): > 54.6 µM | TGI (MDA-MB-468 breast): > 100 µM

CCn1c(O)c(/C=N/NC(=O)C(C)c2ccc(CC(C)C)cc2)sc1=S (configuration not stated)
GI50 (MDA-MB-468 breast): 0.378 µM | TGI (MDA-MB-468 breast): 12 µM

N#Cc1nn(-c2cc(=O)[nH]c3ccc(Cl)cc23)c(N)c1C#N
GI50 (MDA-MB-468 breast): > 100 µM | TGI (MDA-MB-468 breast): > 100 µM

COC(=O)[C@]12CC[C@@H](C)[C@H](C)[C@@H]1C1=CC[C@@H]3[C@@]4(C)C[C@@H](O)[C@H](O)[C@@](C)(CO)C4=CC[C@@]3(C)[C@]1(C)CC2
GI50 (MDA-MB-468 breast): 14.2 µM | TGI (MDA-MB-468 breast): 29.7 µM

CN(C)CCCNc1c2ccc(Cl)cc2nc2c1oc1ccc(Cl)cc12
GI50 (MDA-MB-468 breast): 8.02 µM | TGI (MDA-MB-468 breast): 21.8 µM

COc1cnc2c(c1)C(=O)c1c-2n(CCCNC2=NCCS2)c(=O)c2cc([N+](=O)[O-])ccc12
GI50 (MDA-MB-468 breast): 0.0283 µM | TGI (MDA-MB-468 breast): 1.53 µM

CC(=O)ON1CCCC(P(=O)(OCCSC(=O)C(C)(C)C)OCCSC(=O)C(C)(C)C)C1=O (configuration not stated)
GI50 (MDA-MB-468 breast): 2.67 µM | TGI (MDA-MB-468 breast): 23.6 µM

NC(N)=N/N=C/c1c(Cl)cccc1Cl
GI50 (MDA-MB-468 breast): 12.4 µM | TGI (MDA-MB-468 breast): 26.5 µM

COc1cc(Cl)cc(-c2nn(-c3cccc(NC(=O)c4ccc(N5CCOCC5)c(C(F)(F)F)c4)c3)cc2-c2ccncc2)c1
GI50 (MDA-MB-468 breast): 12.1 µM | TGI (MDA-MB-468 breast): > 100 µM

CN(C)C1CCN(C(=O)c2ccc(NC(=O)Nc3ccc(-c4nc(N5CCOCC5)c5cccn5n4)cc3)cc2)CC1
GI50 (MDA-MB-468 breast): 0.0186 µM | TGI (MDA-MB-468 breast): 0.0866 µM

CCOC(=O)Nc1cc2c(c(N)n1)N=C(c1ccccc1)CO2
GI50 (MDA-MB-468 breast): 0.0427 µM | TGI (MDA-MB-468 breast): 0.394 µM

COc1cnc2c(c1)C(=O)c1c-2n(CCCN2CCOCC2)c(=O)c2cc(Cl)ccc12
GI50 (MDA-MB-468 breast): 0.183 µM | TGI (MDA-MB-468 breast): 0.544 µM

CN1CCN(c2ccc(Nc3cc(-c4cccc(-n5ccc6cc(C7CC7)cc(F)c6c5=O)c4CO)cn(C)c3=O)nc2)CC1
GI50 (MDA-MB-468 breast): 3.15 µM | TGI (MDA-MB-468 breast): 17.1 µM
